Holding throughout (type): in vitro ADME
Data set [1] can be described thus: Medium control without cells (hepatocyte stability assay). To be noted: 90 min, 1 μM.
The nature of data set [2]: Metabolic stability in cryopreserved hepatocytes, mouse. The following applies: 1 μM; for Remaining: Pooled Mouse Hepatocytes. How it is done:
(§1) page 34: UHPLC-MS/MS System: Chromatographic separation was performed on an Acquity UPLC BEH […] with 6500+ Qtrap system. […] software suite. The UPLC column was maintained at 55 °C. Mobile phase A was 0.1% formic acid in MilliQ H2O and Mobile phase B was 0.1% formic acid in acetonitrile. The flow rate was 0.9 […] The mass spectrometer was operated in positive-ion mode with electrospray ionization. MRM transition m/z […] plasma stability and plasma protein binding. The following MS parameters were employed for analyte measurements: ion spray voltage 5 kV, temperature 550 °C, gas 1 and gas 2 were 60, entrance potential (EP): 10 V, declustering potential (DP): 50 V, collision energy (CE): 27 V, and collision cell exit potential (CXP): 16 V. Metabolic Stability in mouse and human cryopreserved hepatocytes. 10 mM test compounds were provided by Compound Sample Group. Diluted 10 mM test compounds and 30 mM positive control compounds (7-ethoxycoumarin) to 1 mM and 3 mM with DMSO in 96-well plates. Diluted 1 mM test compounds and 3 mM positive control compounds to 100 μM and 300 μM dosing solutions with ACN. Cryopreserved cells were thawed, isolated and suspended in Incubation Medium, then diluted with pre-warmed Incubation Medium to 0.5 × 10^6cells/mL. Added 198 μL of pre-warmed cell suspensions in 96 -well plates. Transferred 125 μL of stop solution (acetonitrile containing 200 ng/mL tolbutamide and 200 ng/mL labetalol as internal standards) in a set of pre- labeled 96-well plates. Spike d 2 μL dosing solution to each well of 96 -well plates in duplicates. For T0 Samples, mix ed to achieve a homogenous suspension for about 1 min, then immediately transferred 25 μL of each sample into well containing 125 μL of ice -cold stop solution followed by mixing. Incubated all plates at 37°C in a 95% humidified incubator at 5% CO 2 to start the reactions page 35: with constant shaking at about 600 rpm. At 15, 30, 60 and 90 min, mixed samples and then transferred 25 μL of each sample at each time point to well containing 125 μL of ice -cold stop solution followed by mixing. Medium Control (MC) sample plates (labeled as T0-MC and T90- MC) were prepared at T0 and T90 by adding the same components to each well except cell suspensions. At each corresponding time point, stopped the reactions by removing the plates from incubator and mixing with 125 μL of ice-cold stop solution. Vortexed the plates immediately on a plate shaker at 500 rpm for 10 minutes. Then, centrifuge d all sample plates at 3220 x g for 20 min at 4°C. After centrifugation, 80 μL/well of supernatant in the sample plates were transferred to another set of pre-labeled 96-well plates which containing 240 μL of ultra pure water according to the plate map. Analytical plates were sealed and stored at 4°C until LC-MS/MS analysis. Thawing Medium: Williams' Medium E containing 5% fetal bovine serum and 30% Perc oll solution and other supplements. Incubation Medium: Williams' Medium E (no phenol red) containing 2 mM L-Glutamine and 25 mM HEPES. Stop Solution: Acetonitrile containing 200 ng/mL tolbutamide and labetalol as internal standards. Dilution Solution: Ultra-pure water. The remaining percents of test articles after incubation were calculated by the follow equations: Equation ( 6): Use equation of first order kinetics [NT] […] The data was […] concatenated with a reversed decoy database for evaluating False Discovery Rate (FDR). […]

Data set [3] can be described thus: Metabolic stability in cryopreserved hepatocytes, human. The following applies: Pooled Human Hepatocytes, 1 μM. On the procedure: as §1

With `O=C1CCC(N2Cc3cc(Nc4noc5ccccc45)ccc3C2=O)C(=O)N1` (stereo not shown) [SJ001043149-3], the Remaining in data set [1] came to 94.5%; in data set [2] (15 min) it was 83.3%; in data set [2] (30 min), 86.1%; in data set [2] (60 min), 89.6%; in data set [2] (90 min), 81.4%; in data set [3] (15 min) it was 110.2%. The Remaining in data set [3] (30 min) is given as 88.9%; in data set [3] (60 min) it was 93.8%; in data set [3] (90 min), 108.9%. The k in data set [2] (Pooled Mouse Hepatocytes (first result line, species inferred from Ln(Remaining))) was determined as 0.0013 min⁻¹.

For the origin of these results see paper PMC10791743, “Selective CK1α degraders exert antiproliferative activity against a broad range of human cancer cell lines” (Nature Communications, 2024).
